Tests used:
[1] = system: human intestinal flora (HIF); test: Time course of TMF constituents during anaerobic biotransformation by human intestinal flora; type: in vitro ADME; conditions: for Increase of content (fold): 60 h incubation by HIF; for Reduction of content (fold): after 60 h incubation by HIF
Description: (§1) The general anaerobic medium (GAM) of HIF was prepared as follows: 10.0 g of tryptone, 10.0 g of proteose peptone, 13.5 g of digested serum powder, 5.0 g of yeast extract, 2.2 g of beef extract, 1.2 g of beef liver extract powder, 3.0 g of glucose, 2.5 g of KH2PO4, 3.0 g of NaCl, 5.0 g of soluble starch, 0.3 g of L-cysteine hydrochloride, and 0.3 g of sodium thioglycolate were dissolved in H2O. Adjust the pH of GAM solution to 7.1–7.2 with 1M NaOH aqueous solution and supply the total volume to 1 L. Ten grams of fresh feces obtained from a healthy volunteer, who had not taken any medicine in three months, were immediately homogenized and suspended in GAM (50 mL) solution. The HIF was undertaken according to the previous paper of our laboratory. Preparation of the biotransformation products of TMF by HIF was followed by the method of previous research.
(§2) A biotransformation system consisting of HIF (10 mL) and TMF (10 mg) was anaerobically incubated at 37 °C. All experiments were carried out in sextuplicate at each time point. The biotransformation reaction was stopped at 0.5, 1, 2, 4, 8, 12, 24, 36, 48, 60 h. The biotransformation solution was extracted with n-butanol (each 10 mL) three times. The combined n-butanol layer was evaporated to dryness under a gentle stream of nitrogen. MeOH (400 μL) was used to dissolve the residue which acted as a deproteinization agent. The resultant solution was vortex-mixed for 1 min and centrifuged at 16,000 g for 10 min at 4 °C. The supernatant was collected and filtered through a 0.22 μm filter as the test solution. The blank sample was prepared using TMF-free medium solution with the same processing steps. […] The column temperature was set at 30 °C and detection wavelength was set at 254 nm.

[2] = Bidirectional transport across the Caco-2 cell monolayer (Papp, efflux ratio, mass balance); conditions: human; for recovery at 90 min, 50 μM: mass balance, total amount in AP and BL sides, incubation up to 90 min, n = 3
[3] = system: Caco-2 cell monolayer; test: as above; conditions: Caco-2 monolayer; classes after ref 18
[4] = system: RAW 264.7 murine macrophages cells; parameters: method as in PMID 22644850; conditions: RAW 264.7 cells; compared with daidzin; cited from earlier work
[5] = in vitro; conditions: human
[6] = Time course of TMF constituents during anaerobic biotransformation by human intestinal flora; type: in vitro ADME; conditions: male, human, human intestinal flora (faecal suspension in GAM); incubation by HIF; read-out: Time of maximum concentration
Description: as §1, §2

[7] = Caco-2, pH 7.4, Absorption class by Papp, Caco-2 monolayer, classes after ref 18
[8] = Caco-2, pH 7.4, Level (order of magnitude) of Papp, Caco-2 monolayer
[9] = Caco-2, pH 7.4, Total Recovery (%) AP→BL
[10] = Caco-2, pH 7.4, Total Recovery (%) BL→AP

| SMILES | Papp A→B at 90 min, 50 μM ([2]; Caco-2, pH 7.4) [×10⁻⁶ cm/s] | Papp B→A at 90 min, 50 μM ([2]; Caco-2, pH 7.4) [×10⁻⁶ cm/s] | efflux ratio at 1 h, 50 μM ([2]; Caco-2, pH 7.4) | Papp at 1 h, 50 μM [2, 8] [×10⁻⁶ cm/s] | recovery at 90 min, 50 μM [2, 9] [%] | recovery at 90 min, 50 μM [2, 10] [%] | further results |
| --- | --- | --- | --- | --- | --- | --- | --- |
| COc1ccc(-c2coc3cc(O)ccc3c2=O)cc1 [Compound 12, formononetin] | 30.64 ± 0.07 | 26.5 ± 1.1 | 0.87 | ~10 | 102 | 98 | Increase of content (fold) [1]: more than 3 fold; Papp at 1 h, 50 μM [2, 7]: > 10 ×10⁻⁶ cm/s |
| COc1cc(-c2coc3c(C4OC(CO)C(O)C(O)C4O)c(O)ccc3c2=O)ccc1O (stereo not drawn) [Compound 5, 3′-methoxypuerarin] | 0.75 ± 0.09 | 0.47 ± 0.03 | 0.63 |  | 94.6 | 86.2 | Content remaining ([1]; at 60 h incubation by HIF): ~50% |
| O=c1c(-c2ccc(O)cc2)coc2c([C@@H]3O[C@H](CO)[C@@H](O)[C@H](O)[C@H]3O)c(O)ccc12 [Compound 4, puerarin] | 0.68 ± 0.02 | 0.41 ± 0.01 | 0.6 | ~0.1 | 96.6 | 95.7 | Absorption class by Papp [3]: poorly absorbed |
| O=C1C=C(c2ccc(O)cc2O)[C@@H](Cc2ccc(O)cc2)O1 [Compound 9, puerol A] | 6.27 ± 0.81 | 8.3 ± 1.6 | 1.32 | ~1 | 86 | 90.9 | Increase of content (fold) [1]: more than 3 fold |
| O=Cc1ccc(O)c(O)c1 [Compound 2, protocatechuic aldehyde] |  |  |  |  |  |  | Content remaining ([1]; at 60 h incubation by HIF): ~50% |
| COc1ccc(C2=CC(=O)OC2Cc2ccc(O)cc2)c(OC2OC(CO)C(O)C(O)C2O)c1 (racemic) [Compound 8, (±)-puerol B-2″-O-glucopyranoside] | 1.29 ± 0.28 | 1.03 ± 0.09 | 0.8 | ~1 | 77 | 91.4 |  |
| O=c1c(-c2ccc(O)cc2)coc2cc(O)cc(O)c12 [Compound 11, genistein] | 32.4 ± 3.86 | 37.7 ± 1.93 | 1.16 | ~10 | 86.7 | 75.7 | Increase of content (fold) [1]: more than 3 fold; Papp at 1 h, 50 μM [2, 7]: > 10 ×10⁻⁶ cm/s |
| O=c1c(-c2ccc(O)cc2)coc2cc(O[C@@H]3O[C@H](CO)[C@@H](O)[C@H](O)[C@H]3O)ccc12 [Compound 7, daidzin] | 0.4 ± 0.01 | 0.37 ± 0.01 | 0.92 |  | 99.8 | 98.5 | Reduction of content (fold) [1]: 10 fold; Conversion by HIF ([1]; during the 60 h incubation by HIF): almost completely converted into daidzein (10); Absorption class by Papp [3]: poorly absorbed; Papp at 1 h, 50 μM ([2]; Caco-2, pH 7.4): ~0.1 ×10⁻⁶ cm/s |
| O=c1c(-c2ccc(O)c(O)c2)coc2c([C@@H]3O[C@H](CO[C@@H]4OC[C@](O)(CO)[C@H]4O)[C@@H](O)[C@H](O)[C@H]3O)c(O)ccc12 [Compound 3, 3′-hydroxymirificin] | 0.97 ± 0.01 | 0.53 ± 0.01 | 0.55 |  | 101 | 98.3 | Content remaining ([1]; early stage (4 h) of incubation by HIF): ~25% |
| O=c1c(-c2ccc(O)cc2)coc2c([C@@H]3O[C@H](CO[C@@H]4OC[C@](O)(CO)[C@H]4O)[C@@H](O)[C@H](O)[C@H]3O)c(O)ccc12 [Compound 6, mirificin] | 0.29 ± 0.01 | 0.23 ± 0.01 | 0.79 |  | 99.4 | 98.5 | Reduction of content (fold) [1]: 10 fold |
| O=c1c(-c2ccc(O)cc2)coc2cc(O)ccc12 [Compound 10, daidzein] |  |  |  |  |  |  | Inhibitory effect on lipopolysaccharide-induced nitric oxide production [4]: stronger than that of daidzin; Papp A→B at 90 min, 50 μM ([5]; Caco-2, pH 7.4): 25.5 ± 0.34 ×10⁻⁶ cm/s; Papp B→A at 90 min, 50 μM ([5]; Caco-2, pH 7.4): 26.22 ± 0.01 ×10⁻⁶ cm/s; Papp at 1 h, 50 μM ([5]; Caco-2, pH 7.4, Absorption class by Papp): > 10 ×10⁻⁶ cm/s; Papp at 1 h, 50 μM ([5]; Caco-2, pH 7.4, Level (order of magnitude) of Papp): ~10 ×10⁻⁶ cm/s; recovery at 90 min, 50 μM [5, 9]: 93.4%; recovery at 90 min, 50 μM [5, 10]: 100% |
| CC(C)NCC(O)COc1cccc2ccccc12 (stereo not drawn) [propranolol, reference compound] |  |  |  |  |  |  | Papp A→B at 1 h ([2]; Caco-2, pH 7.4): 33.7 ×10⁻⁶ cm/s |
| O=c1c(-c2ccc(O)c(O)c2)coc2c(C3OC(CO)C(O)C(O)C3O)c(O)ccc12 (stereo not drawn) [Compound 1, 3′-hydroxypuerarin] | 0.45 ± 0.02 | 0.29 ± 0.01 | 0.64 |  | 98.1 | 94.4 | Tmax [6]: 2 h |

Source: PMC6331934, “Study of the Biotransformation of Tongmai Formula by Human Intestinal Flora and Its Intestinal Permeability across the Caco-2 Cell Monolayer” (Molecules, 2015)
